Experimental data reported in US6673839B1, “Pharmaceutical compositions with antitumour activity” (Universita' Degli Studi di Catania, priority 1998, dated 2004).
Counter-ions that a name gives are not always drawn.

What was measured:
[1] = system: cells from 4 primitive epidermoid carcinomas of the larynx and 1 primitive undifferentiated carcinoma of the nasopharynx; assay: In vitro short-term chemosensitivity assay (MTT), all five explants; format: cell-based, human
Experimental: The effects of L-aC on cells from 4 primitive epidermoid carcinomas of the larynx and 1 primitive undifferentiated carcinoma of the nasopharynx were tested.
Tissue fragments from the tumour mass were mechanically dissociated in Hank's solutions adding an antibiotic and an antifungal to obtain a cell monosuspension free of agglomerates. The resulting suspension was centrifuged at 1200 rpm for 5 minutes and the pellet was resuspended in MEM culture medium supplemented with 10% of patient serum, to obtain a concentration of 10^5 cells/ml. Subsequently, 180 μl of the resulting suspension were dispensed in microplate wells and incubated under 5% CO2 atmosphere at 37° C. for 3 days. After that, the antitumor medicaments were added in the amount of 20 μl for each well, at a concentration of 0.1×, 1× and 10× the maximum serum concentrations that can usually be reached in clinical practice. 24 h after the beginning of the exposure to the antitumour medicament, 100 μl of MTT were added, and after 4 h, a further 150 μl of dimethylsulfoxide were added.
The optical density was evaluated by a Uniscan microspectrophotometer with a […] wavelength filter. Cytotoxicity was evaluated as percentage of the optical density of the treated sample compared with the optical density of the control.
Bleomycin (BLEC), […] (CDDP), 5-fluoruracil (5-FU), vincristine (VCR), epidoxorubicin (Epi-Dx) and methotrexate (MTX) were tested for comparison purposes.
L-aC was tested at the following concentrations: 0.2-2-20 mg/ml.

[2] = system: Yoshida ascitogenic tumour; assay: Sprague-Dowley rats inoculated with Yoshida ascitogenic tumour, treatment; format: in vivo; parameters: surviving animals (mortality curve): unit not given here
Experimental: Yoshida tumour is a transplantable, ascitogenic experimental tumour consisting of histiocyte-like immortalized cells.
The tumour causes, on the average 7 days after the intraperitoneal inoculation in Sprague-Dowley rat, the formation of 120-150 ml of ascites which reappears 3-4 days after complete emptying of the peritoneal cavity and induces death of all the animals within 14-16 days after inoculation.
300 Sprague-Dowley rats (4 months old, mean weight: 200 g), under standard feeding and temperature conditions (25° C.), were inoculated with Yoshida tumour. The onset and evolution of the tumour were checked by daily observation and weighing. One week after the inoculation of the tumour, rats were divided in 6 groups and treated as follows:
Group 1: 50 rats were subjected, on day 8 to 14, to daily emptying of 5 ml of ascitic fluid which was substituted with 5 ml of saline solution;
Group 2: 50 rats were subjected, on day 8 to 14, to daily emptying of 5 ml of ascitic fluid which was substituted with 50 mg of L-aC diluted in 5 ml of saline solution;
Group 3: 25 rats were subjected, on day 8 to 14, to daily emptying of 5 ml of ascitic fluid which was substituted with 80 mg of L-aC diluted in 5 ml of saline solution;
Group 4: 25 rats were subjected, on day 8 to 14, to daily emptying of 5 ml of ascitic fluid which was substituted with 120 mg of L-aC diluted in 5 ml of saline solution;
Group 5: 100 rats were subjected, on day 8 to 14, to evacuation on alternate days of 5 ml of ascitic fluid which was substituted with 25 mg of L-aC diluted in 5 ml of saline solution;
Group 6: 50 rats were used as control and received no treatment.

[3] = system: Yoshida tumour; assay: Survived rats reinoculated with Yoshida tumour; format: in vivo, Sprague-Dowley rats
Experimental: 20 survivors rats previously transplanted with Yoshida tumour and subjected to the treatment on alternate days with 25 mg of L-aC diluted in 5 ml of saline solution […], were reinoculated with the tumour, at the end of the 6 week observation period.

CC(=O)OC(CC(=O)[O-])C[N+](C)(C)C [L-aC, L-acetylcarnitine hydrochloride]
IC50 ([1]; Homo sapiens, read-out: IC 50 concentrations): 20 to 700 µg/mL
IC90 ([1]; Homo sapiens, read-out: IC 90 concentrations): 700 to 20000 µg/mL
most active medicaments (cases out of 5) ([1]; five explants): 4/5
necroscopy finding ([2]; 6 animals sacrified at end of observation): no presence of the disease
animals died during further treatment ([2]; 47 Group 5 survivors treated a further 2 weeks): 21
surviving animals (mortality curve) ([2]; Group 2, 50 mg lac i.p. daily day 8-14, day 0 transplant): 50
surviving animals (mortality curve) ([2]; Group 2, 50 mg lac i.p. daily day 8-14, day 1): 50
surviving animals (mortality curve) ([2]; Group 2, 50 mg lac i.p. daily day 8-14, day 2): 50
surviving animals (mortality curve) ([2]; Group 2, 50 mg lac i.p. daily day 8-14, day 3): 50
surviving animals (mortality curve) ([2]; Group 2, 50 mg lac i.p. daily day 8-14, day 4): 50
surviving animals (mortality curve) ([2]; Group 2, 50 mg lac i.p. daily day 8-14, day 5): 50
surviving animals (mortality curve) ([2]; Group 2, 50 mg lac i.p. daily day 8-14, day 6): 50
surviving animals (mortality curve) ([2]; Group 2, 50 mg lac i.p. daily day 8-14, day 7): 50
surviving animals (mortality curve) ([2]; Group 2, 50 mg lac i.p. daily day 8-14, day 8): 42
surviving animals (mortality curve) ([2]; Group 2, 50 mg lac i.p. daily day 8-14, day 9): 32
surviving animals (mortality curve) ([2]; Group 2, 50 mg lac i.p. daily day 8-14, day 10): 21
surviving animals (mortality curve) ([2]; Group 2, 50 mg lac i.p. daily day 8-14, day 11): 17
surviving animals (mortality curve) ([2]; Group 2, 50 mg lac i.p. daily day 8-14, day 12): 12
surviving animals (mortality curve) ([2]; Group 2, 50 mg lac i.p. daily day 8-14, day 13): 5
surviving animals (mortality curve) ([2]; Group 2, 50 mg lac i.p. daily day 8-14, day 14): 0
day after inoculation by which all animals died ([2]; Group 2, 50 rats, 50 mg L-aC i.p. daily day 8 to 14): ≤ 14 days
surviving animals (mortality curve) ([2]; Group 3, 80 mg lac i.p. daily from day 8, day 0 transplant): 25
surviving animals (mortality curve) ([2]; Group 3, 80 mg lac i.p. daily from day 8, day 1): 25
surviving animals (mortality curve) ([2]; Group 3, 80 mg lac i.p. daily from day 8, day 2): 25
surviving animals (mortality curve) ([2]; Group 3, 80 mg lac i.p. daily from day 8, day 3): 25
surviving animals (mortality curve) ([2]; Group 3, 80 mg lac i.p. daily from day 8, day 4): 25
surviving animals (mortality curve) ([2]; Group 3, 80 mg lac i.p. daily from day 8, day 5): 25
surviving animals (mortality curve) ([2]; Group 3, 80 mg lac i.p. daily from day 8, day 6): 25
surviving animals (mortality curve) ([2]; Group 3, 80 mg lac i.p. daily from day 8, day 7): 25
surviving animals (mortality curve) ([2]; Group 3, 80 mg lac i.p. daily from day 8, day 8): 12
surviving animals (mortality curve) ([2]; Group 3, 80 mg lac i.p. daily from day 8, day 9): 5
surviving animals (mortality curve) ([2]; Group 3, 80 mg lac i.p. daily from day 8, day 10): 0
time after 1st administration by which all animals died ([2]; Group 3, 25 rats, 80 mg L-aC i.p.): ≤ 72 h
day after inoculation by which all animals died ([2]; Group 3, 25 rats, 80 mg L-aC i.p. daily from day 8): ≤ 10 days
surviving animals (mortality curve) ([2]; Group 4, 120 mg lac i.p. daily from day 8, day 0 transplant): 25
surviving animals (mortality curve) ([2]; Group 4, 120 mg lac i.p. daily from day 8, day 1): 25
surviving animals (mortality curve) ([2]; Group 4, 120 mg lac i.p. daily from day 8, day 2): 25
surviving animals (mortality curve) ([2]; Group 4, 120 mg lac i.p. daily from day 8, day 3): 25
surviving animals (mortality curve) ([2]; Group 4, 120 mg lac i.p. daily from day 8, day 4): 25
surviving animals (mortality curve) ([2]; Group 4, 120 mg lac i.p. daily from day 8, day 5): 25
surviving animals (mortality curve) ([2]; Group 4, 120 mg lac i.p. daily from day 8, day 6): 25
surviving animals (mortality curve) ([2]; Group 4, 120 mg lac i.p. daily from day 8, day 7): 25
surviving animals (mortality curve) ([2]; Group 4, 120 mg lac i.p. daily from day 8, day 8): 0
time from 1st administration by which all animals died ([2]; Group 4, 25 rats, 120 mg L-aC i.p.): ≤ 24 h
day after inoculation by which all animals died ([2]; Group 4, 25 rats, 120 mg L-aC i.p. from day 8): ≤ 8 days
surviving animals (mortality curve) ([2]; Group 5, 25 mg lac i.p. alternate days day 8-14, day 0 transplant): 100
surviving animals (mortality curve) ([2]; Group 5, 25 mg lac i.p. alternate days day 8-14, day 1): 100
surviving animals (mortality curve) ([2]; Group 5, 25 mg lac i.p. alternate days day 8-14, day 2): 100
surviving animals (mortality curve) ([2]; Group 5, 25 mg lac i.p. alternate days day 8-14, day 3): 100
surviving animals (mortality curve) ([2]; Group 5, 25 mg lac i.p. alternate days day 8-14, day 4): 100
surviving animals (mortality curve) ([2]; Group 5, 25 mg lac i.p. alternate days day 8-14, day 5): 100
surviving animals (mortality curve) ([2]; Group 5, 25 mg lac i.p. alternate days day 8-14, day 6): 100
surviving animals (mortality curve) ([2]; Group 5, 25 mg lac i.p. alternate days day 8-14, day 7): 96
surviving animals (mortality curve) ([2]; Group 5, 25 mg lac i.p. alternate days day 8-14, day 8): 91
surviving animals (mortality curve) ([2]; Group 5, 25 mg lac i.p. alternate days day 8-14, day 9): 83
surviving animals (mortality curve) ([2]; Group 5, 25 mg lac i.p. alternate days day 8-14, day 10): 79
surviving animals (mortality curve) ([2]; Group 5, 25 mg lac i.p. alternate days day 8-14, day 11): 61
surviving animals (mortality curve) ([2]; Group 5, 25 mg lac i.p. alternate days day 8-14, day 12): 50
surviving animals (mortality curve) ([2]; Group 5, 25 mg lac i.p. alternate days day 8-14, day 13): 48
surviving animals (mortality curve) ([2]; Group 5, 25 mg lac i.p. alternate days day 8-14, day 14): 47
animals still alive ([2]; Group 5, 100 rats, 25 mg L-aC i.p. alternate days, day 15 after inoculation): 47
ascites amount in survivors ([2]; Group 5, day 15 after inoculation): remarkable reduction of the ascites amount
general condition of survivors ([2]; Group 5, day 28): good health
ascitic fluid in survivors ([2]; Group 5, day 28 after inoculation): complete disappearance of the ascitic fluid
deaths during further observation ([2]; Group 5 survivors, further 6 weeks): no deaths occurred
animals still alive ([2]; of 47 Group 5 survivors, day 28 after inoculation): 26
ascites after reinoculation ([3]; 20 survivors (25 mg L-aC alternate days, 4 weeks), until day 14 after reinoculation): no animals showed ascites
outcome of repeated reinoculation ([3]; second reinoculation): unsuccessfully
